The data set can be described thus: Concentration of lead substances in blood plasma against time after 120 mg Ginkgo extract tablet. Particulars: humans, one tablet with 120 mg Ginkgo extract, means of 12 test persons, FIG. 1. From the text: The presented values are means of 12 test persons. The administered amount is equal to the daily maximum dose, recommended by the monograph.

In the case of `CC(C)(C)[C@]1(O)CC2OC(=O)CC23C(=O)OC2OC(=O)[C@H](O)C231` (stereo partly shown) [bilobalide], the “concentration in blood plasma 12 hours after intake” value is recorded as “very little concentrations”.
